Experiments:
barnyardgrass [1] = assay: Test A pre-/postemergence herbicide test; type: in vivo, Echinochloa crus-galli
Summary of the method: (§1)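 Visual injury ratings, 0 = no effect, 100 = complete control, taken ~10 days after treatment against untreated greenhouse controls. Preemergence: directed soil spray onto seeded loam/sand pots. Postemergence: spray onto plants at one- to two-leaf stage, 2–10 cm tall.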

crabgrass, large = assay: Test A pre-/postemergence herbicide test; type: in vivo, Digitaria sanguinalis
Summary of the method: as §1

giant foxtail = assay: Test A pre-/postemergence herbicide test; type: in vivo, Setaria faberii
Summary of the method: as §1

morningglory = assay: Test A pre-/postemergence herbicide test; type: in vivo, Ipomoea spp.
Summary of the method: as §1

pigweed = assay: Test A pre-/postemergence herbicide test; type: in vivo, Amaranthus retroflexus
Summary of the method: as §1

velvetleaf = assay: Test A pre-/postemergence herbicide test; type: in vivo, Abutilon theophrasti
Summary of the method: as §1

wheat = assay: Test A pre-/postemergence herbicide test; type: in vivo, Triticum aestivum
Summary of the method: as §1

corn = assay: Test A pre-/postemergence herbicide test; type: in vivo, Zea mays
Summary of the method: as §1

rice [2] = assay: Test B flooded paddy test; type: in vivo, Oryza sativa; conditions: Flood, scale of 0 to 100 where 0 is no effect and 100 is complete control
Summary of the method: (§2)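 2-leaf plants; flood 3 cm over soil; compound into paddy water; depth held. Greenhouse 13–15 d. Visual rating vs controls, 0 (no effect) to 100 (complete control); dash = not tested.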

sedge, umbrella [3] = assay: Test B flooded paddy test; type: in vivo, Cyperus difformis; conditions: Flood, scale of 0 to 100 where 0 is no effect and 100 is complete control
Summary of the method: as §2

ducksalad [4] = assay: Test B flooded paddy test; type: in vivo, Heteranthera limosa; conditions: Flood, scale of 0 to 100 where 0 is no effect and 100 is complete control
Summary of the method: as §2

barnyardgrass [5] = assay: Test B flooded paddy test; type: in vivo, Echinochloa crus-galli; conditions: Flood, scale of 0 to 100 where 0 is no effect and 100 is complete control
Summary of the method: as §2

rice [6] = assay: Test C flooded paddy test; type: in vivo, Oryza sativa; conditions: Flood
Summary of the method: (§3)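 Visual ratings from 0, no effect, to 100, complete control, were made against untreated controls after 13–15 greenhouse days. Compounds had gone straight into paddy water 3 cm above the soil, kept at that depth, on 2-leaf-stage plants.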

sedge, umbrella [7] = assay: Test C flooded paddy test; type: in vivo, Cyperus difformis; conditions: Flood
Summary of the method: as §3

ducksalad [8] = assay: Test C flooded paddy test; type: in vivo, Heteranthera limosa; conditions: Flood
Summary of the method: as §3

barnyardgrass [9] = assay: Test C flooded paddy test; type: in vivo, Echinochloa crus-galli; conditions: Flood
Summary of the method: as §3

monochoria = assay: Test F flood (paddy) test; type: in vivo, Monochoria vaginalis; conditions: 21 d, scale 0-100
Source text: (§4) Three plastic pots (ca. 16-cm diameter) per rate were partially filled with sterilized Tama silt loam soil comprising a 35:50:15 ratio of sand, silt and clay and 2.6% organic matter. Separate plantings for each of the three pots were as follows. Seeds from the U.S. of monochoria (Monochoria vaginalis), sedge, umbrella (small-flower umbrella sedge, Cyperus difformis), bulrush, […] bulrush, Scirpus juncoides), and […] (purple […] coccinea), were planted into one 16-cm pot for each rate. Seeds from the U.S. of flatsedge, rice (rice flatsedge, Cyperus iria), sprangletop, Brdd. (bearded sprangletop, Leptochloa fascicularis), one stand of 9 or 10 water seeded rice seedlings (Rice, W.S. Jap, Oryza sativa cv. 'Japonica-[…]' or Rice, W.S. Ind, 'Indica'), and two stands of 3 or 4 seedlings of rice, transplanted (transplanted rice, Oryza sativa cv. 'Japonica-[…]') were planted into one 16-cm pot for each rate. Seeds from the U.S. of barnyardgrass (Echinochloa crus-galli), […] (common […], Alisma plantago-aquatica), and watergrass, late (late watergrass, Echinochloa oryzicola) were planted into one 16-cm pot for each rate. Plantings were sequential so that crop and weed species were at the 2.0 to 2.5-leaf stage at time of treatment. Potted plants were grown in a greenhouse with day/night temperature settings of 30/27° C., and supplemental balanced lighting was provided to maintain a 16-h photoperiod. Test pots were maintained in the greenhouse until test completion. At time of treatment, test pots were flooded to 3 cm above the soil surface, treated by application of test compounds directly to the paddy water, and then maintained at that water depth for the duration of the test. Effects of treatments on rice and weeds were visually evaluated by comparison to untreated controls after 21 d. Plant response ratings, summarized in Table F, are based on a scale of 0 to 100 where 0 is no effect and 100 is complete control. A dash (-) response means no test result.

sprangletop, Brdd. = assay: Test F flood (paddy) test; type: in vivo, Leptochloa fascicularis; conditions: 21 d, scale 0-100
Source text: as §4

Rice, W.S. Ind = assay: Test F flood (paddy) test; type: in vivo, Oryza sativa Indica; conditions: 21 d, scale 0-100
Source text: as §4

rice, transplanted = assay: Test F flood (paddy) test; type: in vivo, Oryza sativa cv. Japonica—M202; conditions: 21 d, scale 0-100
Source text: as §4

barnyardgrass [10] = assay: Test F flood (paddy) test; type: in vivo, Echinochloa crus-galli; conditions: 21 d, scale 0-100
Source text: as §4

watergrass, late = assay: Test F flood (paddy) test; type: in vivo, Echinochloa oryzicola; conditions: 21 d, scale 0-100
Source text: as §4

[11] = system: small-flower umbrella sedge (CYPDI); assay: Test G paddy mixture test (Colby); type: in vivo, Cyperus difformis; conditions: applied alone, 300 g a.i./ha; 14 d; scale 0-100
Procedure: (§5) Seeds of small-flower umbrella […], Cyperus difformis) and […], Heteranthera limosa) were sown on the soil surface in two separate quadrants of 11-cm (4-inch) tubs filled with steam pasteurized Tama soil. Simultaneously, plantings of […], Echinochloa crus-galli) and transplanted japonica rice (ORYSA, Oryza sativa) were established in separate “plug” flats. […] Herbicide application timing was targeted at the 2.0 to 2.5 leaf stage and the plants were treated with test chemicals formulated in a non-phytotoxic solvent. Treated plants and controls were maintained in a greenhouse for 14 d, after which time all species were compared to controls and visually evaluated. Plant response ratings are summarized in Tables G1 through G12, and are based on a scale of 0 to 100 where 0 is no effect and 100 is complete control. A dash (-) response means no test result. Colby's Equation was used to determine the herbicidal effects expected from the mixtures. Colby's Equation (Colby, S. R. “Calculating Synergistic and Antagonistic Responses of Herbicide Combinations,” Weeds, 15(1), pp 20-22 (1967)) calculates the expected additive effect of herbicidal mixtures and for two active ingredients is of the form: Pa+b=Pa+Pb-(PaPb/100) where • Pa+b is the percentage effect of the mixture expected from additive contribution of the individual components: • Pa is the observed percentage effect of the first active ingredient at the same use rate as in the mixture, and • Pb is the observed percentage effect of the second active ingredient at the same use rate as in the mixture. In the following Tables, rates are shown in grams of active ingredient per […]); “Obsd.” is the observed effect. “Exp.” is the expected effect calculated from Colby's Equation.

ducksalad (HETLI) = assay: Test G paddy mixture test (Colby); type: in vivo, Heteranthera limosa; conditions: applied alone, 300 g a.i./ha; 14 d; scale 0-100
Procedure: as §5

[12] = Postemergence, 125 g ai/ha, 0 to 100 scale, 0 no effect, 100 complete control
[13] = Postemergence, 500 g ai/ha, 0 to 100 scale (0 no effect, 100 complete control)
[14] = Preemergence, 125 g ai/ha, visual rating on 0 to 100 scale (0 no effect, 100 complete control)
[15] = preemergence, 500 g ai/ha, 0 to 100 scale
[16] = 125 g ai/ha, scale of 0 to 100 where 0 is no effect and 100 is complete control, 13 to 15 days
[17] = Postemergence, 1000 g ai/ha, 0 to 100 scale (0 no effect, 100 complete control)
[18] = Preemergence, 1000 g ai/ha, visual rating on 0 to 100 scale (0 no effect, 100 complete control), approx. 10 days

SMILES: O=C1NCC(c2cccc(Cl)c2)C1C(=O)Nc1ccccc1F (racemic) [Compound 89]
- Plant response rating, Barnyardgrass (barnyardgrass [1]; [12]): 60
- Plant response rating, Barnyardgrass (barnyardgrass [1]; [13]): 80
- Barnyardgrass plant response rating (barnyardgrass [1]; [14]): 60
- Plant response rating, Barnyardgrass (barnyardgrass [1]; preemergence, 500 g ai/ha, 0 to 100 scale (0 no effect, 100 complete control)): 80
- Plant response rating, Crabgrass, Large (crabgrass, large; [12]): 60
- Plant response rating, Crabgrass, Large (crabgrass, large; [13]): 80
- Crabgrass, Large plant response rating (crabgrass, large; [14]): 80
- Plant response rating, Crabgrass, Large (crabgrass, large; [15]): 90
- Plant response rating, Foxtail, Giant (giant foxtail; [12]): 60
- Plant response rating, Foxtail, Giant (giant foxtail; [13]): 80
- Foxtail, Giant plant response rating (giant foxtail; [14]): 80
- Plant response rating, Foxtail, Giant (giant foxtail; [15]): 90
- Plant response rating, Morningglory (morningglory; [12]): 0
- Plant response rating, Morningglory (morningglory; [13]): 10
- Morningglory plant response rating (morningglory; [14]): 0
- Plant response rating, Morningglory (morningglory; [15]): 0
- Plant response rating, Pigweed (pigweed; [12]): 0
- Plant response rating, Pigweed (pigweed; [13]): 20
- Pigweed plant response rating (pigweed; [14]): 0
- Plant response rating, Pigweed (pigweed; [15]): 0
- Plant response rating, Velvetleaf (velvetleaf; [12]): 0
- Plant response rating, Velvetleaf (velvetleaf; [13]): 0
- Velvetleaf plant response rating (velvetleaf; [14]): 0
- Plant response rating, Velvetleaf (velvetleaf; [15]): 0
- Plant response rating, Wheat (wheat; [12]): 0
- Plant response rating, Wheat (wheat; [13]): 20
- Wheat plant response rating (wheat; [14]): 0
- Plant response rating, Wheat (wheat; [15]): 10
- Plant response rating, Corn (corn; [12]): 0
- Plant response rating, Corn (corn; [13]): 30
- Corn plant response rating (corn; [14]): 0
- Plant response rating, Corn (corn; [15]): 0
- Plant response rating, Rice (rice [2]; 250 g ai/ha): 20
- Plant response rating, Sedge, Umbrella (sedge, umbrella [3]; 250 g ai/ha): 0
- Plant response rating, Ducksalad (ducksalad [4]; 250 g ai/ha): 70
- Plant response rating, Barnyardgrass (barnyardgrass [5]; 250 g ai/ha): 60
- Plant response rating, Rice (rice [6]; [16]): 0
- Plant response rating, Rice (rice [6]; 250 g ai/ha, scale 0 to 100): 0
- Plant response rating, Rice (rice [6]; 500 g ai/ha, scale 0 to 100): 0
- Plant response rating, Rice (rice [6]; 1000 g ai/ha, scale 0 to 100): 0
- Plant response rating, Sedge, Umbrella (sedge, umbrella [7]; [16]): 0
- Plant response rating, Sedge, Umbrella (sedge, umbrella [7]; 250 g ai/ha, scale 0 to 100): 0
- Plant response rating, Sedge, Umbrella (sedge, umbrella [7]; 500 g ai/ha, scale 0 to 100): 0
- Plant response rating, Sedge, Umbrella (sedge, umbrella [7]; 1000 g ai/ha, scale 0 to 100): 0
- Plant response rating, Ducksalad (ducksalad [8]; [16]): 70
- Plant response rating, Ducksalad (ducksalad [8]; 250 g ai/ha, scale 0 to 100): 85
- Plant response rating, Ducksalad (ducksalad [8]; 500 g ai/ha, scale 0 to 100): 100
- Plant response rating, Ducksalad (ducksalad [8]; 1000 g ai/ha, scale 0 to 100): 100
- Plant response rating, Barnyardgrass (barnyardgrass [9]; [16]): 20
- Plant response rating, Barnyardgrass (barnyardgrass [9]; 250 g ai/ha, scale 0 to 100): 20
- Plant response rating, Barnyardgrass (barnyardgrass [9]; 500 g ai/ha, scale 0 to 100): 40
- Plant response rating, Barnyardgrass (barnyardgrass [9]; 1000 g ai/ha, scale 0 to 100): 75

SMILES: O=C1NCC(c2ccc(F)c(F)c2)C1C(=O)Nc1ccccc1Cl (racemic) [Compound 99]
- Plant response rating, Barnyardgrass (barnyardgrass [1]; [17]): 90
- Plant response rating, Barnyardgrass (barnyardgrass [1]; [18]): 90
- Plant response rating, Crabgrass, Large (crabgrass, large; [17]): 90
- Plant response rating, Crabgrass, Large (crabgrass, large; [18]): 90
- Plant response rating, Foxtail, Giant (giant foxtail; [17]): 90
- Plant response rating, Foxtail, Giant (giant foxtail; [18]): 90
- Plant response rating, Morningglory (morningglory; [17]): 10
- Plant response rating, Morningglory (morningglory; [18]): 0
- Plant response rating, Pigweed (pigweed; [17]): 0
- Plant response rating, Pigweed (pigweed; [18]): 0
- Plant response rating, Velvetleaf (velvetleaf; [17]): 10
- Plant response rating, Velvetleaf (velvetleaf; [18]): 0
- Plant response rating, Wheat (wheat; [17]): 20
- Plant response rating, Wheat (wheat; [18]): 20
- Plant response rating, Corn (corn; [17]): 20
- Plant response rating, Corn (corn; [18]): 20
- Plant response rating, Rice (rice [2]; 1000 g ai/ha): 10
- Plant response rating, Sedge, Umbrella (sedge, umbrella [3]; 1000 g ai/ha): 0
- Plant response rating, Ducksalad (ducksalad [4]; 1000 g ai/ha): 95
- Plant response rating, Barnyardgrass (barnyardgrass [5]; 1000 g ai/ha): 80
- Plant response rating, Monochoria (monochoria; 125 g ai/ha): 50
- Plant response rating, Monochoria (monochoria; 250 g ai/ha): 85
- Plant response rating, Monochoria (monochoria; 500 g ai/ha): 95
- Plant response rating, Sprangletop, Brdd. (sprangletop, Brdd.; 125 g ai/ha): 0
- Plant response rating, Sprangletop, Brdd. (sprangletop, Brdd.; 250 g ai/ha): 75
- Plant response rating, Sprangletop, Brdd. (sprangletop, Brdd.; 500 g ai/ha): 85
- Plant response rating, Rice, W.S. Ind (Rice, W.S. Ind; 125 g ai/ha): 0
- Plant response rating, Rice, W.S. Ind (Rice, W.S. Ind; 250 g ai/ha): 0
- Plant response rating, Rice, W.S. Ind (Rice, W.S. Ind; 500 g ai/ha): 0
- Plant response rating, Rice, Transplanted (rice, transplanted; 125 g ai/ha): 0
- Plant response rating, Rice, Transplanted (rice, transplanted; 250 g ai/ha): 0
- Plant response rating, Rice, Transplanted (rice, transplanted; 500 g ai/ha): 0
- Plant response rating, Barnyardgrass (barnyardgrass [10]; 125 g ai/ha): 25
- Plant response rating, Barnyardgrass (barnyardgrass [10]; 250 g ai/ha): 50
- Plant response rating, Barnyardgrass (barnyardgrass [10]; 500 g ai/ha): 80
- Plant response rating, Watergrass, Late (watergrass, late; 125 g ai/ha): 30
- Plant response rating, Watergrass, Late (watergrass, late; 250 g ai/ha): 40
- Plant response rating, Watergrass, Late (watergrass, late; 500 g ai/ha): 50

SMILES: CN(C(=O)COc1nc2ccccc2s1)c1ccccc1 [Mefenecet]
- CYPDI Obsd. [11]: 100
- HETLI Obsd. (ducksalad (HETLI)): 100
